Source: US7411002B2, “Polycationic sulfonamides and use thereof” (priority 2006, dated 2008)
Read-outs that look alike come from different tables or passages of the source.

Key:
[1] = Rapid-throughput BODIPY-TR cadaverine (BC) fluorescence displacement assay for binding affinity to LPS; conditions: half-maximal effective displacement of BODIPY-TR cadaverine probe from LPS; 50 mM Tris buffer, pH 7.4; read-out: Binding affinity (BC displacement) ED50 value
Procedure: Rapid-throughput Fluorescence Displacement Assay for quantifying binding affinities to LPS. […] Polymyxin B (PMB), a peptide antibiotic known to bind and neutralize LPS^65 serves as the positive control and reference compound for every plate, enabling the quantitative assessment of repeatability and reproducibility (CV and Z′ factors) for the assay. Automated liquid handling is performed on a Precision 2000 automated microplate pipetting system, programmed using the Precision Power software, Bio-Tek Instruments Inc., VT, USA. Results are reported as half-maximal effective displacement of probe (ED50) (Tables A-F). In all experiments, Polymyxin B (PMB), a decapeptide antibiotic, known to bind and neutralize LPS,^66-69 is used as a reference compound.

[2] = test system: LPS-induced nitric oxide production in murine macrophage J774A.1 cells; assay: NO inhibition (Griess nitrite assay) in LPS-stimulated murine macrophage J774A.1 cells; type: cell-based; conditions: Mus musculus, J774.A1, 10 ng/ml LPS, 16 h
Procedure: Assessment of neutralization of LPS toxicity: NO inhibition activity. Nitric oxide production is measured as total nitrite in murine macrophage J774A.1 cells using the Griess assay^70 as described previously.^71 J774A.1 cells are plated at ˜10^5/ml in a volume of 40 μl/well, in 384-well, flat-bottomed, cell culture treated microtiter plates and subsequently stimulated with 10 ng/ml lipopolysaccharide (LPS). Concurrent to LPS stimulation, serially diluted concentrations of test compounds are added to the cell medium and left to incubate for 16 h. Polymyxin B is used as reference compound in each plate. Positive-(LPS stimulation only) and negative-controls (J774A.1 medium only) are included in each experiment. Nitrite concentrations are measured by adding 40 μl of supernatant to equal volumes of Griess reagents (50 μl/well; 0.1% NED solution in ddH2O and 1% sulfanilamide, 5% phosphoric acid solution in ddH2O) and incubating for 15 minutes at room temperature in the dark. Absorbance at 535 nm is measured using a Molecular Devices Spectramax M2 multifunction plate reader (Sunnyvale, Calif.). Nitrite concentrations are interpolated from standard curves obtained from serially diluted sodium nitrite standards. IC50 values are determined for compounds that neutralize LPS inhibit NO production in a dose-dependent manner (Tables A-F). Results in this assay parallel those in the binding assay.

[3] = test system: LPS-induced NF-κB induction in human embryonic kidney 293 cells cotransfected with TLR4, CD14 and MD2; assay: Inhibition of LPS induction of NF-κB (seAP reporter) in HEK 293 cells cotransfected with TLR4, CD14 and MD2; type: cell-based; conditions: for IC50: inhibition of LPS-induced NF-κB induction, HEK 293 TLR4/CD14/MD2 reporter cells, read-out: NFκβ inhibition IC50 value; for activity in words (LPS binding / cell-based cytokine inhibition, comment on Table F): qualitative comparison with spermine-sulfonamide counterparts
Description: Assessment of Inhibition of Cytokine Induction (NF-κB): The inhibition of induction of NF-κB (a key transcripitional activator of the innate immune system, leading to uncontrolled cytokine release^72,73 which ultimately leads to multiple organ failure and the shock syndrome) is quantified using human embryonic kidney 293 cells cotransfected with TLR4 (LPS receptor), CD14 and MD2 (co-receptors), available from InvivoGen, Inc. (HEK-Bluetm, San Diego, Calif.), as per protocols provided by the vendor. Stable expression of secreted alkaline phosphatase (seAP) under control of NF-κB/AP-1 promoters is inducible by LPS, and extracellulare seAP in the supernatant is proportional to NF-κB induction. seAP is assayed spectrophotometrically using an alkaline phosphatase-specific chromogen at 620 nm using a rapid-throughput, automated protocol employing a Bio-Tek P2000 liquid handler. Results showing the ability of polycationic sulfonamide compounds to inhibit the induction of NF-κB by LPS are shown in Tables A-F.

Row | Compound | EC50 [1] [µM] | IC50 [2] [µM] | IC50 ([3]; Homo sapiens, HEK293) [µM] | activity in words (LPS binding / cell-based cytokine inhibition, comment on Table F) [3] | IC50 [3] [µM]
1 | CCCCCCCCS(=O)(=O)NCCCNCCCCNCCCN [MQTS 2351, N^1-Octanylsulfonyl-1,14-diamino-5,10-diazabutadecane] | 6.64 | 1.44 | 33.3 | – | –
2 | CCCCCCCCCCCCS(=O)(=O)NCCCNCCCCNCCCN [MQTS 2357, N^1-Dodecanylsulfonyl-1,14-diamino-5,10-diazabutadecane] | 2.69 | 1.34 | 0.41 | – | –
3 | CCCCCCCCCCCCCCCCS(=O)(=O)N(CCCN)CCCCNCCCN [MQTS 2363] | 45.6 | 13.7 | 2.68 | greatly diminished activity | –
4 | CCCCCCCCCCCCCCCCS(=O)(=O)NCCCCCCCCCCCCN [MQTS 2369] | – | – | 200 | much lower activities | –
5 | CCCCCCCCCCCCCCCCS(=O)(=O)NCCCOCCCCOCCCN [MQTS 2370] | > 5000 | 30.9 | 22.4 | much lower activities | –
6 | CCCCCCCCCCS(=O)(=O)NCCCNCCCCNCCCN [MQTS 2377, N^1-Decanylsulfonyl-1,14-diamino-5,10-diazabutadecane] | 3.7 | 4.42 | 0.5 | – | –
7 | CCCCCCCCCCCCCCCCCCS(=O)(=O)NCCCNCCCCNCCCN [MQTS 2378] | 6.01 | 0.48 | 0.36 | – | –
8 | CCCCCCCCS(=O)(=O)NCCCNCCCNCCCCNCCCN [MQTS 2379, N^1-Octanylsulfonyl-1,18-diamino-5,9,14-triazaoctadecane] | 2.84 | 6.47 | 0.816 | – | –
9 | CCCCCCCCCCCCCCCCCCS(=O)(=O)NCCCNCCCNCCCCNCCCN [MQTS 2380, N^1-Octadecanylsulfonyl-1,18-diamino-5,9,14-triazaoctadecane] | 4.45 | 0.23 | 1.06 | – | –
10 | CCCCCCCCCCS(=O)(=O)NCCCNCCCNCCCCNCCCN [MQTS 2381] | 2.89 | 1.09 | 0.278 | – | –
11 | CCCCCCCCCCCCS(=O)(=O)NCCCNCCCNCCCCNCCCN [MQTS 2382, N^1-Dodecanylsulfonyl-1,18-diamino-5,9,14-triazaoctadecane] | 2.92 | 0.39 | 0.19 | – | –
12 | CCCCCCCCCCCCS(=O)(=O)NCCCN(CCCNCCCNCCCCNCCCN)CCCNS(=O)(=O)CCCCCCCCCCCC [MQTS 2390, N^1-Bis[N-dodecanylsulfonyl-3-aminopropyl]-1,18-diamino-5,9,14-triazaoctadecane] | 6.82 | 0.51 | 16.4 | – | –
13 | CCCCCCCCCCCCCCCCS(=O)(=O)NCCCN(CCCNCCCNCCCCNCCCN)CCCNS(=O)(=O)CCCCCCCCCCCCCCCC [MQTS 2391] | 9.31 | 5.2 | 2.68 | – | –
14 | CCCCCCCCCCCCCCCCCCS(=O)(=O)NCCCN(CCCNCCCCNCCCN)CCCNS(=O)(=O)CCCCCCCCCCCCCCCCCC [MQTS 2394, N^1-Bis[N-octadecanylsulfonyl-3-aminopropyl]-1,14-diamino-5,10-diazabutadecane] | 28.3 | 2330 | 64 | – | –
15 | CCCCCCCCCCCCCCCCS(=O)(=O)NCCCN(CCCNCCCCNCCCN)CCCNS(=O)(=O)CCCCCCCCCCCCCCCC [MQTS 2396] | 26.4 | 15.1 | 4.85 | – | –
16 | CCCCCCCCCCCCCCCCCCS(=O)(=O)NCCCNCCCCNCCCCNCCCCNCCCNS(=O)(=O)CCCCCCCCCCCCCCCCCC [MQTS 2401, N^1,N^14-Bis[N-octadecanylsulfonyl-3-aminopropyl]-1,14-diamino-5,10-diazabutadecane] | > 5000 | – | – | – | 6.49
17 | CCCCCCCCS(=O)(=O)NCCCN(CCCNCCCCNCCCN)CCCNS(=O)(=O)CCCCCCCC [MQTS 2406, N^1-Bis[N-octanylsulfonyl-3-aminopropyl]-1,14-diamino-5,10-diazabutadecane] | 2.17 | – | 0.669 | – | –

Row | Compound | EC50 [1] [µM] | IC50 [2] [µM] | IC50 ([3]; Homo sapiens, HEK293) [µM] | activity in words (LPS binding / cell-based cytokine inhibition, comment on Table F) [3] | IC50 [3] [µM]
18 | CCCCCCCCCCCCCCCCS(=O)(=O)NCCCN(CCCN)CCCN [MQTS 2409] | 12.3 | – | 9.19 | – | –
19 | CCCCCCCCCCCCCCCCS(=O)(=O)NCCN(CCN)CCN [MQTS 2410] | 3.54 | – | 0.379 | – | –
20 | CCCCCCCCS(=O)(=O)NCCNCCCNCCN [MQTS 2411] | 10.6 | – | 13.8 | – | –
21 | CCCCCCCCCCCCS(=O)(=O)NCCNCCCNCCN [MQTS 2412] | 4.77 | – | 0.686 | – | –
22 | CCCCCCCCS(=O)(=O)NCCCNCCCNCCCN [MQTS 2413] | 6.7 | – | 5.56 | – | –
23 | CCCCCCCCCCCCS(=O)(=O)NCCCNCCCNCCCN [MQTS 2414] | 4.27 | – | 0.363 | – | –
24 | CCCCCCCCS(=O)(=O)NCCCNC/C=C/CNCCCN [MQTS 2415] | 12.5 | – | 12.7 | – | –
25 | CCCCCCCCCCCCS(=O)(=O)NCCCNC/C=C/CNCCCN [MQTS 2416] | 3.83 | – | 0.522 | active | –
26 | CCCCCCCCCCS(=O)(=O)NCCCN(CCCNCCCNCCCCNCCCN)CCCNS(=O)(=O)CCCCCCCCCC [MQTS 2417, N^1-Bis[N-decanylsulfonyl-3-aminopropyl]-1,18-diamino-5,9,14-triazaoctadecane] | 1.16 | 0.43 | 2.2 | – | –
27 | CCCCCCCC(=O)NCCCN(CCCNCCCNCCCCNCCCN)CCCNC(=O)CCCCCCC [MQTS 2418] | 1 | 2.48 | 3.17 | greatly diminished activity | –
28 | CCCCCCCCCCS(=O)(=O)NCCCN(CCCNCCCCNCCCN)CCCNS(=O)(=O)CCCCCCCCCC [MQTS 2419, N^1-Bis[N-decanylsulfonyl-3-aminopropyl]-1,14-diamino-5,10-diazabutadecane] | 2.4 | 1.1 | 5.17 | – | –
29 | CCCCCCCCCCCCS(=O)(=O)NCCCN(CCCNCCCCNCCCN)CCCNS(=O)(=O)CCCCCCCCCCCC [MQTS 2420, N^1-Bis[N-dodecanylsulfonyl-3-aminopropyl]-1,14-diamino-5,10-diazabutadecane] | 3.98 | 2.27 | 13.2 | – | –
30 | CCCCCCCC(=O)NCCCN(CCCNCCCCNCCCN)CCCNC(=O)CCCCCCC [MQTS 2421] | 1.32 | 9.02 | 9.76 | greatly diminished activity | –
31 | N^1,N^14-Bis[N-decanylsulfonyl-3-aminopropyl]-1,14-diamino-5,10-diazabutadecane [MQTS 2398] | 13.5 | – | – | – | 4.2
32 | N^1,N^14-Bis[N-dodecanylsulfonyl-3-aminopropyl]-1,14-diamino-5,10-diazabutadecane [MQTS 2399] | 55.2 | – | – | – | 10.3
33 | N^1,N^14-Bis[N-hexadecanylsulfonyl-3-aminopropyl]-1,14-diamino-5,10-diazabutadecane [MQTS 2400] | 133 | – | – | – | 11.7
34 | N^1,N^14-Bis[N-octanylsulfonyl-3-aminopropyl]-1,14-diamino-5,10-diazabutadecane [MQTS 2397] | 2.6 | – | – | – | 0.607
